# Values of other authors as cited in patent publication US8765149B2, “Low-oil pharmaceutical emulsion compositions comprising progestogen” (Besins Healthcare Luxembourg Sarl, priority 2010, dated 2014).
# Tested on: TBI patients
# Conditions: two recent clinical trials
structure (smiles),measurement,value
"CC(=O)[C@H]1CC[C@H]2[C@@H]3CCC4=CC(=O)CC[C@]4(C)[C@H]3CC[C@]12C [progesterone, pregn-4-ene-3,20-dione]",mortality of TBI patients,decreased mortality
same,safety in TBI patients,safe and well tolerated
